SMILES strings stand for the structures. pIC50: −log10 of the molar value.

Chain of HCV NS3-4A serine protease (full-length NS3-4A protein) (P26664 1027-1657): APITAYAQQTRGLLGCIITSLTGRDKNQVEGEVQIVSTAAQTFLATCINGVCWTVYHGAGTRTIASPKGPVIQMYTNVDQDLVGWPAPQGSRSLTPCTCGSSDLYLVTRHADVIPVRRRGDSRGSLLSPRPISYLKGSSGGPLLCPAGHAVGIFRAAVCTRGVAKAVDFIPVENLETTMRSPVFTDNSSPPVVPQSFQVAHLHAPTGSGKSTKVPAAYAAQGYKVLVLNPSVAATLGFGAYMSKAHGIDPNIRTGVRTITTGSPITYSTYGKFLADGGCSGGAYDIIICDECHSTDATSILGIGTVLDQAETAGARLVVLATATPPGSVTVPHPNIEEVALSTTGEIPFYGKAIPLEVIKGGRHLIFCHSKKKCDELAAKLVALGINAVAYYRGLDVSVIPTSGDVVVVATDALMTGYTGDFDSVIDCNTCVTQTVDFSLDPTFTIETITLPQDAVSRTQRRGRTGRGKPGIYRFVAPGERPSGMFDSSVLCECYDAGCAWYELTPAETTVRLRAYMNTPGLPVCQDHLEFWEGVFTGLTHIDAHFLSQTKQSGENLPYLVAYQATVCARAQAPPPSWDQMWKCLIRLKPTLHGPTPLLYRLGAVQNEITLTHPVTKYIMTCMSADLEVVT
Chain of HCV NS3-4A serine protease (full-length NS3-4A protein) (P26664 1658-1711 partner): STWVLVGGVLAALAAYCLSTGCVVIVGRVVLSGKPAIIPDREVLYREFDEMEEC

The test concerns the target HCV NS3-4A serine protease (full-length NS3-4A protein) (Hepatitis C virus genotype 1a (isolate 1) (HCV), UniProt P26664). The experiment in a line: HCV NS3-4A protease assay. The format is biochemical, HCV genotype 1a. As to conditions: strain HCV-1, fluorogenic peptide substrate, read-out: Protease assay Ex. 12 IC50. How it is done: The inhibitory activity of certain compounds of Table A against HCV NS3-4A serine protease is determined in a homogenous assay using the full-length NS3-4A protein (genotype 1a, strain HCV-1) and a commercially available internally-quenched fluorogenic peptide substrate as described by Taliani, M., et al. 1996 Anal. Biochem. 240:60-67, which is incorporated by reference in its entirety.
Turning to `C=C[C@@H]1C[C@]1(NC(=O)[C@@H]1C[C@@]2(CN1C(=O)[C@@H](NC(=O)[C@@H](NC(=O)[C@@H]1CCCCN1C1CCCC1)C1CCCCC1)C(C)(C)C)C(C)(C)C21CCC1)C(=O)NS(=O)(=O)N1CCCC1` [Compound 32, (5R,8S)-7-[(2S)-2-{[(2S)-2-cyclohexyl-2-({[(2S)-1-cyclopentylpiperidin-2-yl]carbonyl}amino)acetyl]amino}-3,3-dimethylbutanoyl]-10,10-dimethyl-N-{(1R,2S)-1-[(pyrrolidin-1-ylsulfonyl)carbamoyl]-2-vinylcyclopropyl}-7-azadispiro[3.0.4.1]decane-8-carboxamide], the pIC50 was 9.00. Under `C=C[C@@H]1C[C@]1(NC(=O)[C@@H]1C[C@@]2(CN1C(=O)[C@@H](NC(=O)[C@@H](NC(=O)[C@@H]1CCCCN1CCOC)C1CCCCC1)C(C)(C)C)C(C)(C)C21CCC1)C(=O)NS(=O)(=O)N1CCCC1` [Compound 33, (5R,8S)-7-[(2S)-2-{[(2S)-2-cyclohexyl-2-({[(2S)-1-(2-methoxyethyl)piperidin-2-yl]carbonyl}amino)acetyl]amino}-3,3-dimethylbutanoyl]-10,10-dimethyl-N-{(1R,2S)-1-[(pyrrolidin-1-ylsulfonyl)carbamoyl]-2-vinylcyclopropyl}-7-azadispiro[3.0.4.1]decane-8-carboxamide] stands 8.46. On to `C=C[C@@H]1C[C@]1(NC(=O)[C@@H]1C[C@@]2(CN1C(=O)[C@@H](NC(=O)[C@@H](NC(=O)[C@@H]1CCCCN1C(C)C)C1CCCCC1)C1CCCCC1)C(C)(C)C21CCC1)C(=O)NS(=O)(=O)N1CCCC1` [Compound 35, (5R,8S)-7-[(2S)-2-cyclohexyl-2-{[(2S)-2-cyclohexyl-2-({[(2S)-1-isopropylpiperidin-2-yl]carbonyl}amino)acetyl]amino}acetyl]-10,10-dimethyl-N-{(1R,2S)-1-[(pyrrolidin-1-ylsulfonyl)carbamoyl]-2-vinylcyclopropyl}-7-azadispiro[3.0.4.1]decane-8-carboxamide], for which the pIC50 is 8.52. On to `C=C[C@@H]1C[C@]1(NC(=O)[C@@H]1C[C@@]2(CN1C(=O)[C@@H](NC(=O)[C@@H](NC(=O)[C@H]1CCCCN1CC)C1CCCCC1)C(C)(C)C)C(C)(C)C21CCC1)C(=O)NS(=O)(=O)N1CCCC1` [Compound 36, (5R,8S)-7-[(2S)-2-{[(2S)-2-cyclohexyl-2-({[(2R)-1-ethylpiperidin-2-yl]carbonyl}amino)acetyl]amino}-3,3-dimethylbutanoyl]-10,10-dimethyl-N-{(1R,2S)-1-[(pyrrolidin-1-ylsulfonyl)carbamoyl]-2-vinylcyclopropyl}-7-azadispiro[3.0.4.1]decane-8-carboxamide], for which the pIC50 is 8.46. `C=C[C@@H]1C[C@]1(NC(=O)[C@@H]1C[C@@]2(CN1C(=O)[C@@H](NC(=O)[C@@H](NC(=O)[C@@H]1CCCCN1CC)C1CCCCC1)C(C)(C)C)C(C)(C)C21CCC1)C(=O)NS(=O)(=O)N1CCCC1` [Compound 37, (5R,8S)-7-[(2S)-2-{[(2S)-2-cyclohexyl-2-({[(2S)-1-ethylpiperidin-2-yl]carbonyl}amino)acetyl]amino}-3,3-dimethylbutanoyl]-10,10-dimethyl-N-{(1R,2S)-1-[(pyrrolidin-1-ylsulfonyl)carbamoyl]-2-vinylcyclopropyl}-7-azadispiro[3.0.4.1]decane-8-carboxamide]: the pIC50 was 8.48. As to `C=C[C@@H]1C[C@]1(NC(=O)[C@@H]1C[C@@]2(CN1C(=O)[C@@H](NC(=O)[C@@H](NC(=O)[C@H]1CCCN1CC)C1CCCCC1)C(C)(C)C)C(C)(C)C21CCC1)C(=O)NS(=O)(=O)N1CCCC1` [Compound 38, (5R,8S)-7-[(2S)-2-{[(2S)-2-cyclohexyl-2-({[(2R)-1-ethylpyrrolidin-2-yl]carbonyl}amino)acetyl]amino}-3,3-dimethylbutanoyl]-10,10-dimethyl-N-{(1R,2S)-1-[(pyrrolidin-1-ylsulfonyl)carbamoyl]-2-vinylcyclopropyl}-7-azadispiro[3.0.4.1]decane-8-carboxamide], the pIC50 is 8.46. Consider `C=C[C@@H]1C[C@]1(NC(=O)[C@@H]1C[C@@]2(CN1C(=O)[C@@H](NC(=O)[C@@H](NC(=O)[C@@H]1CCCN1CC)C1CCCCC1)C(C)(C)C)C(C)(C)C21CCC1)C(=O)NS(=O)(=O)N1CCCC1` [Compound 39, (5R,8S)-7-[(2S)-2-{[(2S)-2-cyclohexyl-2-({[(2S)-1-ethylpyrrolidin-2-yl]carbonyl}amino)acetyl]amino}-3,3-dimethylbutanoyl]-10,10-dimethyl-N-{(1R,2S)-1-[(pyrrolidin-1-ylsulfonyl)carbamoyl]-2-vinylcyclopropyl}-7-azadispiro[3.0.4.1]decane-8-carboxamide], for which the pIC50 is 8.60. As for `C=C[C@@H]1C[C@]1(NC(=O)[C@@H]1C[C@@]2(CN1C(=O)[C@@H](NC(=O)[C@@H](NC(=O)C1CCN1C(C)(C)C)C1CCCCC1)C(C)(C)C)C(C)(C)C21CCC1)C(=O)NS(=O)(=O)N1CCCC1` (stereo partly drawn) [Compound 40, (5R,8S)-7-[(2S)-2-{[(2S)-2-{[(1-tert-butylazetidin-2-yl)carbonyl]amino}-2-cyclohexylacetyl]amino}-3,3-dimethylbutanoyl]-10,10-dimethyl-N-{(1R,2S)-1-[(pyrrolidin-1-ylsulfonyl)carbamoyl]-2-vinylcyclopropyl}-7-azadispiro[3.0.4.1]decane-8-carboxamide], the pIC50 was 8.22. Under `C=C[C@@H]1C[C@]1(NC(=O)[C@@H]1C[C@@]2(CN1C(=O)[C@@H](NC(=O)[C@@H](NC(=O)[C@@H]1CCCCN1C(C)C)C1CCCCC1)C1CCOCC1)C(C)(C)C21CCC1)C(=O)NS(=O)(=O)N1CCCC1` [Compound 41, (5R,8S)-7-[(2S)-2-{[(2S)-2-cyclohexyl-2-({[(2S)-1-isopropylpiperidin-2-yl]carbonyl}amino)acetyl]amino}-2-(tetrahydro-2H-pyran-4-yl)acetyl]-10,10-dimethyl-N-{(1R,2S)-1-[(pyrrolidin-1-ylsulfonyl)carbamoyl]-2-vinylcyclopropyl}-7-azadispiro[3.0.4.1]decane-8-carboxamide] stands 9.05; under `C=C[C@@H]1C[C@]1(NC(=O)[C@@H]1C[C@@]2(CN1C(=O)[C@@H](NC(=O)[C@@H](NC(=O)c1cnccn1)C1CCCCC1)C1CCOCC1)C(C)(C)C21CCC1)C(=O)NS(=O)(=O)N1CCCC1` [Compound 42, (5R,8S)-7-[(2S)-2-({(2S)-2-cyclohexyl-2-[(pyrazin-2-ylcarbonyl)amino]acetyl}amino)-2-(tetrahydro-2H-pyran-4-yl)acetyl]-10,10-dimethyl-N-{(1R,2S)-1-[(pyrrolidin-1-ylsulfonyl)carbamoyl]-2-vinylcyclopropyl}-7-azadispiro[3.0.4.1]decane-8-carboxamide], 7.40; under `C=C[C@@H]1C[C@]1(NC(=O)[C@@H]1C[C@@]2(CN1C(=O)[C@@H](NC(=O)[C@@H](NC(=O)c1cnccn1)C1CCOCC1)C(C)(C)C)C(C)(C)C21CCC1)C(=O)NS(=O)(=O)N1CCCC1` [Compound 43, (5R,8S)-7-[(2S)-3,3-dimethyl-2-{[(2S)-2-[(pyrazin-2-ylcarbonyl)amino]-2-(tetrahydro-2H-pyran-4-yl)acetyl]amino}butanoyl]-10,10-dimethyl-N-{(1R,2S)-1-[(pyrrolidin-1-ylsulfonyl)carbamoyl]-2-vinylcyclopropyl}-7-azadispiro[3.0.4.1]decane-8-carboxamide], 7.22.

The pIC50 is the IC50 on a negative log10 scale, so that one unit is a factor of ten.
